The values below come from publication PMC6617776, “Novel Antihypertensive Peptides Derived from Chicken Foot Proteins” (Molecular Nutrition & Food Research, 2019).

Ends that are not written are not given here.

Experiment [1] deals with spontaneously hypertensive rats (SHR). In words: Measurement of blood pressure by the tail-cuff method after a single oral dose. It is filed as in vivo, rat. Conditions: captopril 50 mg kg^−1 bw oral single dose, mean ± SEM, n = 6. Here is the method:
Male SHR (17–20 weeks old, weighing 350–400 g) were obtained from Charles River Laboratories España S.A. (Barcelona, Spain). The animals were singly housed in animal quarters at 22 °C with a 12 h light–dark period. They were fed with a standard diet based on chow Panlab A04 (Panlab, Barcelona, Spain) and had access to tap water ad libitum.
The SBP and DBP in the animals were measured using the tail‐cuff method 23 with a noninvasive BP system model (Letica, Hospitalet, Barcelona, Spain). The rats were given a single dose of 10 mg kg^−1 body weight (bw) of the synthesized peptides, including VGKPGARAPMY, QVGPLIGRYCG, AVFQHNCQE, LSGPVKF, or AVKILP, dissolved in tap water in a total volume of 1.5 mL. Peptides were administered to the SHR by gastric […] through an acute administration between 9 and 10 in the morning.
Positive control rats received 50 mg kg^−1 bw of captopril, a known ACE‐inhibitor, also dissolved in 1.5 mL of tap water, and the negative control rats received 1.5 mL of tap water. SBP was measured in the rats before peptide administration as well as 2, 4, 6, 8, and 24 h post‐administration. […] The changes in SBP and DBP were expressed as the differences in these variables before and after the administration of the different peptides. […]
Differences between treatments were analyzed by two‐way analysis of variance (two‐way ANOVA). […] Outliers were determined using Grubbs’ test. […]

The target in experiment [2] is T1, ACE (angiotensin I‐converting enzyme, EC 3.4.15.1) (Oryctolagus cuniculus, UniProt P12822).
T1 sequence (P12822 34-1310): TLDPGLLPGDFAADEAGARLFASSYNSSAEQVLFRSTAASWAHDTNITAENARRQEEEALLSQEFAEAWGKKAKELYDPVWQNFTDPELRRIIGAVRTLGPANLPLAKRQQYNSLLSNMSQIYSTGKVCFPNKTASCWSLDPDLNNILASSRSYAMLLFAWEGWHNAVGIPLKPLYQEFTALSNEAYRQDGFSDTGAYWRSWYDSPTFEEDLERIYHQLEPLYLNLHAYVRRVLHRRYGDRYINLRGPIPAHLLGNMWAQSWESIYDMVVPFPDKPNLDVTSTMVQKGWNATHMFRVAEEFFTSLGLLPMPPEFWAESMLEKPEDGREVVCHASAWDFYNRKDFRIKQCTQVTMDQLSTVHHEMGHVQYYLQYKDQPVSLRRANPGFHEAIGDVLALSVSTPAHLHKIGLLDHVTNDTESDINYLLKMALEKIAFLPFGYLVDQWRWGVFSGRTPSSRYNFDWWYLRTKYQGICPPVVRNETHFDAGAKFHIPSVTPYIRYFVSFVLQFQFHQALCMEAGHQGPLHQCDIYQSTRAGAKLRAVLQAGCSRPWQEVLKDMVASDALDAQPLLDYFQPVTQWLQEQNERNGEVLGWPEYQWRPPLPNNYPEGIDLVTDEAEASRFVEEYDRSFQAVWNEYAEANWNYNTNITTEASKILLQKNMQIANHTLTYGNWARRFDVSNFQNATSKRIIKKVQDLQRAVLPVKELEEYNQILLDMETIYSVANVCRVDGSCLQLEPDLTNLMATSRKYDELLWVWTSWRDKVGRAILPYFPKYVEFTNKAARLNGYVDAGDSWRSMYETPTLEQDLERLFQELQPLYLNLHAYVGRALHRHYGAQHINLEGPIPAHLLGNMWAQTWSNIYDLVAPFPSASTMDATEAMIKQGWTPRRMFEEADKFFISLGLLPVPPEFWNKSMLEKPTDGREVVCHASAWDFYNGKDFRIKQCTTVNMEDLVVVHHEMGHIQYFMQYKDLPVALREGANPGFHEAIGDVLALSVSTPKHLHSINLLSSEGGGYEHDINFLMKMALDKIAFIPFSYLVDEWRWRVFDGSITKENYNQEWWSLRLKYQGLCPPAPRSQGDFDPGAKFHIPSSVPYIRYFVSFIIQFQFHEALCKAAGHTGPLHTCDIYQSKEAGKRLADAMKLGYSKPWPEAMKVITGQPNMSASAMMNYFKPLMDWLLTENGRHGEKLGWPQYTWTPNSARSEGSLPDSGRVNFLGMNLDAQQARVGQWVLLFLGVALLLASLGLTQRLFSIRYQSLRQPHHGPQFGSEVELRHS
Briefly: ACEI activity, fluorimetric assay with o-Abz-Gly-p-Phe(NO2)-Pro-OH. Format: biochemical. The settings on record: synthetic peptides; concentration of peptide needed to inhibit 50 % of the original ACE activity. From the text:
Chicken feet (Gallus gallus domesticus) were provided by a local farm (Granja Gaià, La Riera de Gaià, Spain). Protamex solutions (EC 3.4.21.62 and 3.4.24.28, 1.5 AU g^−1 from Bacillus licheniformis and Bacillus amyloliquefaciens) were kindly provided by Novozymes (Bagsværd, Denmark). ACE (angiotensin I‐converting enzyme, EC 3.4.15.1) was purchased from Sigma‐Aldrich (Madrid, Spain), captopril (PubChem CID: 44093) was purchased from Santa Cruz Biotechnology (Dallas, TX, USA) and o‐aminobenzoylglicil‐p‐nitrofenilalanilprolina (o‐Abz‐Gly‐p‐Phe(NO2)‐Pro‐OH) was provided by Bachem Feinchemikalien (Bubendorf, Switzerland). The synthesized peptides (LSETVV, LSGPVKF, AVKILP, VRWEPAPGPV, VGKPGARAPMY, QVGPLIGRYCG, LGIHPDWQFV, and AVFQHNCQE, purity grade ≥ 90 %) were purchased from Caslo Laboratory ApS (Kongens Lyngby, Denmark). Acetonitrile and trifluoroacetic acid were purchased from Sigma‐Aldrich. All other chemical solvents used were of analytical grade.
ACEI activity was measured according to Mas‐Capdevila et al.21 The fluorescence measurements were performed after 30 min in a multiscan microplate fluorimeter (FLUOstar optima, BMG Labtech, Offeuburg, Germany). The excitation and emission wavelengths were 360 and 400 nm, respectively. The software used to process the data was FLUOstar control (version 1.32 R2, BMG Labtech).
A nonlinear fit was performed on the experimental data to calculate the 50 % inhibitory concentration values (IC50) with the PRISM version 4.02 program for Windows (GraphPad Software, Inc. San Diego, CA, USA). ACEI activity was expressed as a percentage (%) or IC50 (µg µL^−1 solution). The determination of the ACEI activity of the samples was performed at least in duplicate. Data are represented as a mean value ± standard deviation (SD).
Protein content was determined by the bicinchoninic acid method using the standard Pierce BCA Protein Assay (ThermoFisher Scientific). The assay was conducted according to the manufacturer's instructions in a microplate format. A calibration standard curve was prepared with seroalbumin bovine. Determination of the protein content was performed at least in duplicate. The results are expressed as the mean ± SD.

In experiment [3] the test system is ACE. Also noted: method as in earlier work. The settings on record: read-out: ACEI activity IC50 of fermented milk-derived peptides; cited from earlier work.

As for `C[C@H](CS)C(=O)N1CCC[C@H]1C(=O)O` [captopril], the “maximum decrease in DBP” value in experiment [1] (4 h post-administration) was −32.97 ± 8.80 mmHg. The “maximum decrease in SBP” value in experiment [1] (6 h post-administration) is recorded as −33.67 ± 1.94 mmHg. What is called IC50 is the concentration that inhibits the measured activity by half. Take AVFQHNCQE [AVFQHNCQE]: the concentration for half-maximal inhibition (IC50) in experiment [2] came out at 44.8 µM.

As for AVKILP [AVKILP], in experiment [2], the IC50 came to 7.1 µM. Same read-out and setting: in the case of LGIHPDWQFV [LGIHPDWQFV] it was over 138 µM. On to “LHLPLP [known antihypertensive fermented milk-derived peptide]”, for which the IC50 in experiment [3] is 5.5 µM. For LSGPVKF [LSGPVKF], the IC50 in experiment [2] stood at 80.9 µM. Still for that read-out and setting: for QVGPLIGRYCG [QVGPLIGRYCG] the value was 11 µM; for VRWEPAPGPV [VRWEPAPGPV], over 150 µM.
